Reference: patent US20060258647A1, “Treatment of maladaptive substance use with cholecystokinin (CCK) antagonists” (The Regents of the University of California, priority 2005, published 2006)
Entries after “also recorded” stand apart in the source; their conditions may differ.

Experiments:
[1] = tested on: Rats; experiment: Ethanol consumption / reinstatement with foot shock; assay type: in vivo, rat
Procedure: Rats (n=18) were administered 3 daily doses of systemic L-365 (1 mg/kg) prior to a one-hour ethanol (10%) access session. On the second day of L-365, 260 administration, animals were administered 0.8 mA of shock (0.5 seconds every 40 seconds for a period of 15 minutes) in ethanol access chambers directly prior to the onset of their one-hour access session. […] This was a randomized cross over design with each animal serving as its own control.
L-365, 260 had no effect on ethanol consumption when shock was administered during extinction (n=12). Animals were administered 3 daily doses of systemic L-365, 260 after ethanol consumption was extinguished. On the second day of L-365, 260 administration, animals were administered 0.8 mA of shock (0.5 seconds every 40 seconds for a period of 15 minutes) in the ethanol access chambers directly prior to the onset of their one-hour extinction session. This was a randomized cross over design with each animal serving as its own control.
L-365 had no effect on ethanol reinstatement when shock was administered on the first day of re-initiation of ethanol access (n=12). Animals were administered 3 daily doses of systemic L-365, 260 after ethanol consumption was extinguished. On the first day of L-365, 260 administration, animals were administered 0.8 mA of shock (0.5 seconds every 40 seconds for a period of 15 minutes) in the ethanol access chambers directly prior to the onset of their one-hour reinstatement session. This was a randomized cross over design with each animal serving as its own control.

[2] = tested on: Sprague-Dawley rats; experiment: Expression of morphine conditioned place preference (CPP) after systemic administration; assay type: in vivo, rat; details: 1 mg/kg systemic (i.p.)
Procedure: (§1) 68 male Sprague-Dawley rats (Charles River, Wilmington, Mass.) weighing 275-300 grams at the onset of the study were individually housed in a temperature controlled environment (70° F.) and kept on a 12 hour light/dark cycle. Rat chow and water were available ad libitum. Animals were tested at the same time during their light cycle each day. All experimental protocols were approved by the Institutional Animal Care and Use Committee and were conducted in accordance with the Guide for the Care and Use of Laboratory Animals (N1H). 22 rats were used for systemic injections and the remaining rats were cannulated for NAcc microinjections.
Animals were trained in 3 chamber place conditioning boxes (Med Associates) in which 2 chambers (28×21×21 cm) that differed in color (one black, one white), light level, and texture were separated by a neutral gray chamber (12×21×21). During the initial baseline period, animals were placed in the central chamber and were allowed to freely explore all 3 chambers for a period of 30 minutes. Beam breaks, entries, and time spent in each chamber were automatically recorded using infrared beams. […] During each conditioning session, animals were injected with either morphine or saline and were then immediately confined to one of the two larger chambers for 60 minutes. Rats received 2 conditioning sessions per day for a period of 4 days. Conditioning sessions were separated by a minimum period of 5 hours. Animals were tested for expression of conditioned place preference 1 day after the final conditioning session. Drug side and order were counter-balanced. […] Systemic L-365, 260 was administered 30 minutes before the onset of CPP testing. […]
*Difference scores were calculated by subtracting the time spent in the saline paired chamber from the time spent in the morphine paired chamber during a test session. […]

[3] = tested on: Sprague-Dawley rats; experiment: Expression of morphine CPP after microinjection into anterior or posterior nucleus accumbens (NAcc); assay type: in vivo, rat; details: CCK-4 10 ng, CCK-8 100 ng (legend 10 ng), raclopride 4 μg; for expression of morphine CPP, microinjected independently into anterior NAcc: L-365, 260 1 ng (p=0.002), SCH-23390 2 μg; for expression of morphine CPP, microinjected independently into anterior NAcc / expression of morphine CPP, microinjected independently into posterior NAcc: lorglumide 15 ng; for expression of morphine CPP, microinjected independently into posterior NAcc: L-365, 260 1 ng (p=0.021), SCH-23390 2 μg (p=0.049); for effect of co-injection on the L-365, 260 effect (attenuation) on morphine CPP, anterior NAcc: co-injected with L-365, 260 into anterior NAcc; for effect of co-injection on the L-365, 260 effect (potentiation) on morphine CPP, posterior NAcc: co-injected with L-365, 260 into posterior NAcc
Procedure: as §1
Animals were anesthetized with a ketamine-xylazine mixture and maintained on isoflurane (0.5 liter/min) as needed for the duration of surgery. Animals were placed in a stereotaxic frame and were implanted with bilateral 26-gauge stainless steel chronic guide cannulae (Plastics One, Roanoke, V A) into either the Anterior (AP, 2.2; ML, ±1.1; DV, −5.5) or Posterior (AP, 1.2; ML, ±1.1; DV, −5.5) NAcc. Cannulae were secured to the skull with dental cement. At the end of the surgical procedure, animals were treated with penicillin and topical antibiotics. A stainless steel dummy cannula (Plastics One) was inserted into each guide cannula and remained in place when the guide cannulae were not in use. Animals were allowed a 1-week recovery period prior to behavioral testing.
Animals were trained in 3 chamber place conditioning boxes (Med Associates) in which 2 chambers (28×21×21 cm) that differed in color (one black, one white), light level, and texture were separated by a neutral gray chamber (12×21×21). During the initial baseline period, animals were placed in the central chamber and were allowed to freely explore all 3 chambers for a period of 30 minutes. Beam breaks, entries, and time spent in each chamber were automatically recorded using infrared beams. […] During each conditioning session, animals were injected with either morphine or saline and were then immediately confined to one of the two larger chambers for 60 minutes. Rats received 2 conditioning sessions per day for a period of 4 days. Conditioning sessions were separated by a minimum period of 5 hours. Animals were tested for expression of conditioned place preference 1 day after the final conditioning session. Drug side and order were counter-balanced. […] Systemic L-365, 260 was administered 30 minutes before the onset of CPP testing.
All injection sites were based on the atlas of Paxinos and Watson (1998). Bilateral injections were made into either the Anterior (AP, 2.2; ML, +1.1; DV, −5.5) or Posterior (AP, 1.2; ML, ±1.1; DV, −5.5) NAcc. Each injection was made using a 1 μl syringe (Hamilton, Reno, Nev.) attached to 20 cm of PE 50 tubing connected to a 33-gauge injection cannula (Plastics One). Microinjections were given at a rate of 0.5 μl per minute using a syringe pump (kd Scientific, Holliston, M A). A volume of 0.5 μl was injected into each side of the NAcc. Injection cannulae extended 2 mm beyond guide cannulae and were left in place for 1 minute following microinjections to minimize the backflow of drug solution. 10 minutes after microinjection was completed, animals were placed into the central CPP chamber and allowed to explore for a period of 30 minutes. Animals received a maximum of four bilateral NAcc microinjections. The number of microinjections each animal received was determined by the persistence of place preference. […] Microinjection drug order was counterbalanced and began a minimum of one day following the test for expression of morphine CPP. Animals were tested for baseline expression of morphine CPP 24 hours following each microinjection to ensure the return to pre-injection baseline. At the conclusion of the experiment, animals were anesthetized with pentobarbital and perfused intracardially through the ascending aorta with 0.1M phosphate buffered saline followed by 10% formalin. […]

[4] = Jackson et al., 1994; cited from earlier work
[5] = tested on: humans; details: literature (Murphy et al., 1993 and others); cited from earlier work

| Compound | ethanol consumption on the two days following shock ([1]; 3 daily systemic doses 1 mg/kg before one-hour ethanol (10%) access, 0.8 mA shock on second day, n=18, vs saline controls) | ethanol consumption when shock was administered during extinction ([1]; 3 daily systemic doses after ethanol consumption was extinguished, shock on second day, n=12) | ethanol reinstatement when shock was administered on the first day of re-initiation of ethanol access ([1]; 3 daily systemic doses after extinction, shock on first day, n=12) | expression of morphine CPP ([2]; after acquisition of CPP, tested immediately after injection, p=0.006) | expression of morphine CPP ([2]; tested 24 hours after injection, p=0.0009) | expression of morphine CPP ([2]; tested 72 hours after injection, p=0.004) | expression of morphine CPP, microinjected independently into anterior NAcc [3] | expression of morphine CPP, microinjected independently into posterior NAcc [3] | differentiation from saline in animal discrimination studies [4] | side effects on administration to humans [5] | expression of morphine CPP, microinjected independently into anterior NAcc ([3]; listed as Lorglumide) | expression of morphine CPP, microinjected independently into posterior NAcc ([3]; listed as Lorglumide) | expression of morphine CPP, microinjected independently into anterior NAcc ([3]; listed as Raclopride) | effect of co-injection on the L-365, 260 effect (attenuation) on morphine CPP, anterior NAcc [3] | effect of co-injection on the L-365, 260 effect (potentiation) on morphine CPP, posterior NAcc [3] | expression of morphine CPP, microinjected independently into posterior NAcc ([3]; listed as Raclopride) |
| --- | --- | --- | --- | --- | --- | --- | --- | --- | --- | --- | --- | --- | --- | --- | --- | --- |
| Cc1cccc(NC(=O)N[C@@H]2N=C(c3ccccc3)c3ccccc3N(C)C2=O)c1 [L-365, 260, (3R-(+)-2,3-dihydro-1-methyl-2-oxo-5-phenyl-1H-1,4-benzodiazepin-3-yl)-N′-(3-methylphenyl)urea] | consumed significantly less ethanol than saline controls | had no effect | had no effect | attenuates | attenuates | attenuates | attenuates | potentiates | cannot be differentiated from saline | no significant side effects |  |  |  |  |  |  |
| CCCCCN(CCCCC)C(=O)C(CCC(=O)O)NC(=O)c1ccc(Cl)c(Cl)c1 (stereo not shown) [lorglumide] |  |  |  |  |  |  | has no effect | has no effect |  |  | had no effect | had no effect |  |  |  |  |
| CCN1CCC[C@H]1CNC(=O)c1c(O)c(Cl)cc(Cl)c1OC [raclopride] |  |  |  |  |  |  | has no effect | has no effect |  |  |  |  | had no effect | reverse the effects of L-365, 260 | reverse the effects of L-365, 260 | had no effect |
| CCK-4 |  |  |  |  |  |  | neither of which had an effect; also recorded: neither of which has an effect | neither of which had an effect; also recorded: neither of which has an effect |  |  |  |  |  | reversed | reversed |  |
| CCK-8: cholecystokinin peptide, CCKB receptor ligand precursor, obtained from Research Biochemicals |  |  |  |  |  |  | neither of which had an effect; also recorded: neither of which has an effect | neither of which had an effect; also recorded: neither of which has an effect |  |  |  |  |  | reversed | reversed |  |
